Columns and labels:
Type in all cases: cell-based, mouse
[1] = test system: α7 integrin (LacZ reporter in α7βgal+/− myoblasts); assay: Myoblast α7+/LacZ integrin FDG assay (Burkin assay in myoblasts, 96-well); settings: α7+/LacZ myoblasts, 96-well
[2] = test system: β-galactosidase in CMV-LacZ C2C12 myotubes; assay: CMV-LacZ secondary screen in C2C12 myotubes (β-Gal stabilizing assay); settings: C2C12 CMV-LacZ myotubes, fold relative to DMSO
Method in brief: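 Stable CMV-LacZ C2C12 clone; six-point curve 0.5–40 μM; duplicates.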

[3] = test system: α7 integrin (LacZ reporter in α7+/LacZ myotubes); assay: Myotube α7 integrin FDG assay (Burkin assay in myotubes, 96-well); settings: myotubes

COc1ccc(NC(=O)c2ccc3nc(C)sc3c2)cc1 [MLS001204005-01]
fold induction at 0.5 µM ([1]; Mus musculus, Myoblast, 48 h, 0.5 uM, read-out: Burkin Assay in Myoblasts, value relative to DMSO): 1.08
fold induction at 1 µM ([1]; Mus musculus, Myoblast, 48 h, 1 uM, read-out: Burkin Assay in Myoblasts, value relative to DMSO): 1.15
fold induction at 5 µM ([1]; Mus musculus, Myoblast, 48 h, 5 uM, read-out: Burkin Assay in Myoblasts, value relative to DMSO): 1.02
fold induction at 10 µM ([1]; Mus musculus, Myoblast, 48 h, 10 uM, read-out: Burkin Assay in Myoblasts, value relative to DMSO): 1.24
fold induction at 20 µM ([1]; Mus musculus, Myoblast, 48 h, 20 uM, read-out: Burkin Assay in Myoblasts, value relative to DMSO): 1.23
fold induction at 40 µM ([1]; Mus musculus, Myoblast, 48 h, 40 uM, read-out: Burkin Assay in Myoblasts, value relative to DMSO): 1.17
fold induction at 5 µM ([2]; Mus musculus, C2C12, read-out: CMV-LACZ in Myotubes, signal relative to DMSO, 5 uM): 0.94
fold induction at 10 µM ([2]; Mus musculus, C2C12, read-out: CMV-LACZ in Myotubes, signal relative to DMSO, 10 uM): 1.14
fold induction at 20 µM ([2]; Mus musculus, C2C12, read-out: CMV-LACZ in Myotubes, signal relative to DMSO, 20 uM): 1.02
fold induction at 40 µM ([2]; Mus musculus, C2C12, read-out: CMV-LACZ in Myotubes, signal relative to DMSO, 40 uM): 0.781
fold induction at 0.5 µM ([3]; Mus musculus, Myotube, 0.5 uM, read-out: Burkin Assay in Myotubes (signal relative to DMSO)): 0.903
fold induction at 1 µM ([3]; Mus musculus, Myotube, 1 uM, read-out: Burkin Assay in Myotubes (signal relative to DMSO)): 0.987
fold induction at 5 µM ([3]; Mus musculus, Myotube, 5 uM, read-out: Burkin Assay in Myotubes (signal relative to DMSO)): 0.763
fold induction at 10 µM ([3]; Mus musculus, Myotube, 10 uM, read-out: Burkin Assay in Myotubes (signal relative to DMSO)): 1.02
fold induction at 20 µM ([3]; Mus musculus, Myotube, 20 uM, read-out: Burkin Assay in Myotubes (signal relative to DMSO)): 0.818
fold induction at 40 µM ([3]; Mus musculus, Myotube, 40 uM, read-out: Burkin Assay in Myotubes (signal relative to DMSO)): 1.16

COc1ccc2oc(C[S+]([O-])c3ccccc3)c(C(=O)O)c2c1 (stereo not shown) [MLS001208858-01]
Burkin Assay in Myoblasts, signal relative to DMSO ([1]; 0.5 uM): 0.9851
Burkin Assay in Myoblasts, signal relative to DMSO ([1]; 1 uM): 1.003
Burkin Assay in Myoblasts, signal relative to DMSO ([1]; 5 uM): 0.8892
Burkin Assay in Myoblasts, signal relative to DMSO ([1]; 10 uM): 0.8759
Burkin Assay in Myoblasts, signal relative to DMSO ([1]; 20 uM): 0.8548
Burkin Assay in Myoblasts, signal relative to DMSO ([1]; 40 uM): 0.8425
CMV-LACZ in Myotubes, signal relative to DMSO ([2]; 5 uM): 0.944
CMV-LACZ in Myotubes, signal relative to DMSO ([2]; 10 uM): 0.8018
CMV-LACZ in Myotubes, signal relative to DMSO ([2]; 20 uM): 0.9471
CMV-LACZ in Myotubes, signal relative to DMSO ([2]; 40 uM): 0.9238
Burkin Assay in Myotubes, α7 integrin LacZ reporter signal relative to DMSO ([3]; 0.5 uM): 1.095
Burkin Assay in Myotubes, α7 integrin LacZ reporter signal relative to DMSO ([3]; 1 uM): 0.9977
Burkin Assay in Myotubes, α7 integrin LacZ reporter signal relative to DMSO ([3]; 5 uM): 1.104
Burkin Assay in Myotubes, α7 integrin LacZ reporter signal relative to DMSO ([3]; 10 uM): 1.062
Burkin Assay in Myotubes, α7 integrin LacZ reporter signal relative to DMSO ([3]; 20 uM): 1.1
Burkin Assay in Myotubes, α7 integrin LacZ reporter signal relative to DMSO ([3]; 40 uM): 1.007

Cc1cccc(NC(=O)c2cc3ccccc3oc2=O)c1 [MLS001209245-01]
Burkin Assay in Myoblasts, signal relative to DMSO ([1]; 0.5 uM): 1.039
Burkin Assay in Myoblasts, signal relative to DMSO ([1]; 1 uM): 1.132
Burkin Assay in Myoblasts, signal relative to DMSO ([1]; 5 uM): 1.021
Burkin Assay in Myoblasts, signal relative to DMSO ([1]; 10 uM): 1.071
Burkin Assay in Myoblasts, signal relative to DMSO ([1]; 20 uM): 1.1
Burkin Assay in Myoblasts, signal relative to DMSO ([1]; 40 uM): 1.039
CMV-LACZ in Myotubes, signal relative to DMSO ([2]; 5 uM): 0.8568
CMV-LACZ in Myotubes, signal relative to DMSO ([2]; 10 uM): 0.9675
CMV-LACZ in Myotubes, signal relative to DMSO ([2]; 20 uM): 0.9662
CMV-LACZ in Myotubes, signal relative to DMSO ([2]; 40 uM): 0.9952
Burkin Assay in Myotubes, α7 integrin LacZ reporter signal relative to DMSO ([3]; 0.5 uM): 1.113
Burkin Assay in Myotubes, α7 integrin LacZ reporter signal relative to DMSO ([3]; 1 uM): 1.245
Burkin Assay in Myotubes, α7 integrin LacZ reporter signal relative to DMSO ([3]; 5 uM): 0.9667
Burkin Assay in Myotubes, α7 integrin LacZ reporter signal relative to DMSO ([3]; 10 uM): 0.9979
Burkin Assay in Myotubes, α7 integrin LacZ reporter signal relative to DMSO ([3]; 20 uM): 0.6876
Burkin Assay in Myotubes, α7 integrin LacZ reporter signal relative to DMSO ([3]; 40 uM): 0.5729

CCCNC(=S)N1CCC(NC(=O)c2ccc(OC)cc2)CC1 [MLS001211651-01]
Burkin Assay in Myoblasts, signal relative to DMSO ([1]; 0.5 uM): 1.061
Burkin Assay in Myoblasts, signal relative to DMSO ([1]; 1 uM): 1.124
Burkin Assay in Myoblasts, signal relative to DMSO ([1]; 5 uM): 1.011
Burkin Assay in Myoblasts, signal relative to DMSO ([1]; 10 uM): 0.972
Burkin Assay in Myoblasts, signal relative to DMSO ([1]; 20 uM): 0.9909
Burkin Assay in Myoblasts, signal relative to DMSO ([1]; 40 uM): 1.026
CMV-LACZ in Myotubes, signal relative to DMSO ([2]; 5 uM): 0.8714
CMV-LACZ in Myotubes, signal relative to DMSO ([2]; 10 uM): 0.8433
CMV-LACZ in Myotubes, signal relative to DMSO ([2]; 20 uM): 0.8465
CMV-LACZ in Myotubes, signal relative to DMSO ([2]; 40 uM): 0.977
Burkin Assay in Myotubes, α7 integrin LacZ reporter signal relative to DMSO ([3]; 0.5 uM): 0.8543
Burkin Assay in Myotubes, α7 integrin LacZ reporter signal relative to DMSO ([3]; 1 uM): 0.913
Burkin Assay in Myotubes, α7 integrin LacZ reporter signal relative to DMSO ([3]; 5 uM): 1.116
Burkin Assay in Myotubes, α7 integrin LacZ reporter signal relative to DMSO ([3]; 10 uM): 1.025
Burkin Assay in Myotubes, α7 integrin LacZ reporter signal relative to DMSO ([3]; 20 uM): 1.076
Burkin Assay in Myotubes, α7 integrin LacZ reporter signal relative to DMSO ([3]; 40 uM): 1.027
